Results: EP0096457B1, “Indium complexes of substituted 8-hydroxy-quinolines, pharmaceutical compositions containing them and their use as antibacterial agents” (NATIONAL RESEARCH DEVELOPMENT CORPORATION, priority 1982, dated 1983)
Converted amounts (≈) assume the structure as drawn.

Columns and labels:
Klebsiella pneumoniae = experiment: Minimal inhibitory concentration (MIC) in broth culture; type: cell-based; conditions: trypticase soy broth with sodium bicarbonate, approx. 10^4 bacteria per ml, 18 hours at 37°C, 5% CO2 in air, lowest concentration with no visible growth, read-out: MIC Values K. pneumoniae
Description: (§1) Experiments were carried out to find the minimal inhibitory concentrations (MIC) for solutions of various indium complexes against Staphylococcus aureus (human isolate), Escherichia coli (018; co1V^+) and Klebsiella pneumoniae and to compare these with the MIC values for the corresponding metal-free compounds. The complexes were prepared in solution as described in Example 1 except that in the case of the complex of 7-iodo-8-hydroxyquinoline 5-sulphonic acid, 5 molar equivalents of metal-free compound were reacted with the indium chloride trihydrate and the solution was prepared in water. The solutions of the metal-free compounds were prepared in the same solvent as used for the equivalent complex.
(§2) The culture medium used consisted of a 9:1 mixture of trypticase soy broth and 6% w/v aqueous sodium bicarbonate solution. The medium was bulk inoculated with approximately 10^4 test bacteria per ml and 5.0 ml aliquots were then dispensed into sterile 20 ml bottles to which 0.05 ml of the test solution had been added. The test solutions were obtained from the original solution of the indium complex or metal-free compound by dilution to give a suitable range of concentrations in µM. Control samples, to which either no test solution was added or to which the solvent of the test solution only was added, were also prepared.
(§3) For each compound tested the samples at the various concentrations were studied to determine the lowest concentration of the compound at which no growth could be seen. The MIC values thus obtained are shown in Table 1 where it will be seen that the values are in each case lower for the indium complex as compared with the metal-free compound.

[1] = system: Escherichia coli (018; co1V^+); experiment: as above; type: cell-based; conditions: trypticase soy broth with sodium bicarbonate, approx. 10^4 bacteria per ml, 18 hours at 37°C, 5% CO2 in air, lowest concentration with no visible growth, read-out: MIC Values E. coli
Description: as §1, §2, §3

[2] = system: Staphylococcus aureus (human isolate); experiment: as above; type: cell-based; conditions: trypticase soy broth with sodium bicarbonate, approx. 10^4 bacteria per ml, 18 hours at 37°C, 5% CO2 in air, lowest concentration with no visible growth, read-out: MIC Values S. aureus
Description: as §1, §2, §3

E. coli (108, co1V^+) = type: in vivo; conditions: groups of 5 Parks mice infected i.p. with 8.0 x 10^6 E. coli, i.p. treatment 0.2 ml twice per day for 1 day (indium complex 4.6 mg/kg, metal-free compound 3.4 mg/kg per dose)
Description: (§4) The solutions for administration were prepared as follows: • (1) 2 equivalents of 5,7-dichloro-8-hydroxyquinoline were dissolved in a 15 mM solution of InCl3·3H2O in ethanol containing 1% v/v of glycerol. A 1.0 ml aliquot of this solution was dried in vacuo using a sterile universal container and the resultant residue was treated with 15 ml of sterile 0.15 M aqueous sodium chloride containing 1 % w/v of sodium bicarbonate and the solid dispersed by sonication. A 0.2 ml dose of the final preparation corresponds to a dose of 4.6 mg/kg in a 25 g mouse. • (2) 6.4 mg of 5,7-dichloro-8-hydroxyquinoline were moistened by the addition of 0.05 ml of dimethyl sulphoxide and to the moistened material was added 15 ml of sterile 0.15 M aqueous sodium chloride containing 1% w/v of sodium bicarbonate, the solid then being dispersed by sonication. A 0.2 ml dose of the final preparation corresponds to a dose of 3.4 mg/kg in a 25 g mouse.
Groups of 5 male or female Parks mice weighing from 23-25 g were infected by intraperitoneal injection of one of 8.0 x 10^6 E. coli, 3.5 x 10^5 K. pneumoniae and 7.0 x 10^8 S. aureus, the organisms in each case being suspended in 0.2 ml of 10% v/v trypticase soy broth in 0.15 M aqueous sodium chloride, three groups of mice being infected with each organism. […]

K. pneumoniae = experiment: In vivo test in intraperitoneally infected mice (deaths); conditions: groups of 5 Parks mice infected i.p. with 3.5 x 10^5 K. pneumoniae, i.p. treatment 0.2 ml twice per day for 4 days (indium complex 4.6 mg/kg, metal-free compound 3.4 mg/kg per dose)
Description: as §4
(§5) Groups of 5 male or female Parks mice weighing from 23-25 g were infected by intraperitoneal injection of one of 8.0 x 10^6 E. coli, 3.5 x 10^5 K. pneumoniae and 7.0 x 10^8 S. aureus, the organisms in each case being suspended in 0.2 ml of 10% v/v trypticase soy broth in 0.15 M aqueous sodium chloride, three groups of mice being infected with each organism. For each organism, one of the three groups of infected mice was treated by intraperitoneal injection with 0.2 ml of a suspension of the indium complex whilst a second group was similarly treated with 0.2 ml of a supsension of the metal-free compound. The treatment was given twice per day for 1 day in the case of E. coli infection, twice per day for 4 days in the case of K. pneumoniae infection, and twice per day for 2 days in the case of the S. aureus infection. The third group of mice in each case received no treatment.

[3] = system: S. aureus (human isolate); experiment: as above; conditions: groups of 5 Parks mice infected i.p. with 7.0 x 10^8 S. aureus, i.p. treatment 0.2 ml twice per day for 2 days (indium complex 4.6 mg/kg, metal-free compound 3.4 mg/kg per dose)
Description: as §4, §5

| Structure (SMILES) | MIC (Klebsiella pneumoniae) | MIC [1] | MIC [2] | Deaths at 7 days (E. coli (108, co1V^+)) | Deaths % (E. coli (108, co1V^+); at 7 days) | Deaths at 7 days (K. pneumoniae) | Deaths % (K. pneumoniae; at 7 days) | Deaths at 7 days [3] | Deaths % ([3]; at 7 days) |
| --- | --- | --- | --- | --- | --- | --- | --- | --- | --- |
| Oc1c(Cl)cc(Cl)c2cccnc12 [5,7-dichloro-8-hydroxyquinoline] | 100 µM (≈ 21.4 µg/mL) | 100 µM (≈ 21.4 µg/mL) | 6.3 µM (≈ 1.35 µg/mL) | 5 | 100% | 5 | 100% | 4 | 80% |
| Oc1ccc(Cl)c2cccnc12 [5-Chloro-8-hydroxyquinoline] | 38.5 µM (≈ 6.91 µg/mL) | 38.5 µM (≈ 6.91 µg/mL) | 18.8 µM (≈ 3.38 µg/mL) | – | – | – | – | – | – |
| O=S(=O)(O)c1cc(I)c(O)c2ncccc12 [7-Iodo-8-hydroxyquinoline 5-sulphonic acid] | > 500 µM | > 500 µM | > 500 µM | – | – | – | – | – | – |
